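In this assay, cells in 96-well plates receive the compound at five concentrations for 48 hours. Endpoints are linearly interpolated between the surrounding concentrations. GI50 is the concentration that inhibits growth by half. TGI: total growth inhibition.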
What was measured:
Assay in all cases: growth of human tumour cells (NCI), 48 h
OVCAR-3 ovarian = system: OVCAR-3 ovarian
MDA-MB-435 = system: MDA-MB-435
NCI-H460 lung = system: NCI-H460 lung
T-47D breast = system: T-47D breast
HT29 colon = system: HT29 colon
SK-MEL-28 melanoma = system: SK-MEL-28 melanoma
HL-60(TB) leukemia = system: HL-60(TB) leukemia
IGROV1 ovarian = system: IGROV1 ovarian
ACHN renal = system: ACHN renal
RXF 393 renal = system: RXF 393 renal
HCT-15 colon = system: HCT-15 colon
CCRF-CEM leukemia = system: CCRF-CEM leukemia
MALME-3M melanoma = system: MALME-3M melanoma
BT-549 breast = system: BT-549 breast
U251 CNS = system: U251 CNS
SF-295 CNS = system: SF-295 CNS
UACC-62 melanoma = system: UACC-62 melanoma
MDA-MB-231 breast = system: MDA-MB-231 breast
OVCAR-4 ovarian = system: OVCAR-4 ovarian
NCI-H226 lung = system: NCI-H226 lung
KM12 colon = system: KM12 colon
LOX IMVI melanoma = system: LOX IMVI melanoma
HCC-2998 colon = system: HCC-2998 colon
K-562 leukemia = system: K-562 leukemia
CAKI-1 renal = system: CAKI-1 renal
MCF7 breast = system: MCF7 breast
SNB-19 CNS = system: SNB-19 CNS
HOP-92 NSCLC = system: HOP-92 NSCLC

## CCCCCCCC(=O)SCC/C=C/[C@@H]1CC(=O)NCc2nc(co2)C2=N[C@@](C)(CS2)C(=O)N[C@@H](C(C)C)C(=O)O1
OVCAR-3 ovarian
  GI50: 24.1 nM
  TGI: 156 nM
MDA-MB-435
  GI50: 14.8 nM
  TGI: 1630 nM
NCI-H460 lung
  GI50: 13.7 nM
  TGI: 8550 nM
T-47D breast
  GI50: 31.2 nM
  TGI: 201 nM
HT29 colon
  GI50: 13.6 nM
  TGI: 7780 nM
SK-MEL-28 melanoma
  GI50: 13.8 nM
  TGI: 936 nM
HL-60(TB) leukemia
  GI50: 29.4 nM
  TGI: 31800 nM
IGROV1 ovarian
  GI50: 11.4 nM
  TGI: 163 nM
ACHN renal
  GI50: 47.5 nM
  TGI: 320 nM
RXF 393 renal
  GI50: 21.2 nM
  TGI: 139 nM
HCT-15 colon
  GI50: 233 nM
  TGI: > 20400 nM
CCRF-CEM leukemia
  GI50: 29.6 nM
  TGI: > 50000 nM
MALME-3M melanoma
  GI50: 11.2 nM
  TGI: > 50000 nM
BT-549 breast
  GI50: 127 nM
  TGI: > 50000 nM
U251 CNS
  GI50: 44.8 nM
  TGI: 472 nM
SF-295 CNS
  GI50: 26.4 nM
  TGI: 282 nM
UACC-62 melanoma
  GI50: 9.17 nM
  TGI: 53.6 nM
MDA-MB-231 breast
  GI50: 54 nM
  TGI: 8130 nM
OVCAR-4 ovarian
  GI50: 27.6 nM
  TGI: > 50000 nM
NCI-H226 lung
  GI50: 86.1 nM
  TGI: 2370 nM
KM12 colon
  GI50: 25.3 nM
  TGI: 1610 nM
LOX IMVI melanoma
  GI50: 27.7 nM
  TGI: 103 nM
HCC-2998 colon
  GI50: 19.6 nM
  TGI: 216 nM
K-562 leukemia
  GI50: 39.8 nM
  TGI: > 50000 nM
CAKI-1 renal
  GI50: 125 nM
  TGI: 394 nM
MCF7 breast
  GI50: 31.1 nM
  TGI: > 50000 nM
SNB-19 CNS
  GI50: 115 nM
  TGI: > 50000 nM
HOP-92 NSCLC
  GI50: 14.7 nM
  TGI: 111 nM

From PubChem BioAssay (NCI)
